Columns and labels:
Test in all cases: relative viability (nuclei count vs DMSO), 5 days (fraction); higher = more cells survive
NCI-H1650 = tested on: NCI-H1650
How it was run: (§1)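 The day after seeding in 1536-well plates, lung cancer cell lines were treated by pin tool with a single drug, or with a fixed anchor-drug dose together with five library-drug doses (not always all listed) in √10 steps. After 5 days, a combined fix-and-stain solution (final 0.05% Triton X-100, 1% formaldehyde, 1 ug/ml Hoechst) was added. Nuclei counted on 4× images gave relative viability as treated counts over vehicle counts, reported as the median of duplicate plates.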

LOU-NH91 = tested on: LOU-NH91
How it was run: as §1

NCI-H2009 = tested on: NCI-H2009
How it was run: as §1

HCC-44 = tested on: HCC-44
How it was run: as §1

NCI-H2228 = tested on: NCI-H2228
How it was run: as §1

NCI-H838 = tested on: NCI-H838
How it was run: as §1

NCI-H520 = tested on: NCI-H520
How it was run: as §1

NCI-H1755 = tested on: NCI-H1755
How it was run: as §1

HCC-78 = tested on: HCC-78
How it was run: as §1

NCI-H358 = tested on: NCI-H358
How it was run: as §1

LK-2 = tested on: LK-2
How it was run: as §1

NCI-H2347 = tested on: NCI-H2347
How it was run: as §1

HCC-366 = tested on: HCC-366
How it was run: as §1

NCI-H2405 = tested on: NCI-H2405
How it was run: as §1

NCI-H1355 = tested on: NCI-H1355
How it was run: as §1

UMC-11 = tested on: UMC-11
How it was run: as §1

NCI-H1734 = tested on: NCI-H1734
How it was run: as §1

NCI-H1666 = tested on: NCI-H1666
How it was run: as §1

BEN = tested on: BEN
How it was run: as §1

SW 1573 = tested on: SW 1573
How it was run: as §1

201T = tested on: 201T
How it was run: as §1

Work on `CCCCCCCCCCCC1=C(O)C(=O)C=C(O)C1=O` [Embelin] + Nc1nc2[nH]cc(CCc3ccc(C(=O)N[C@@H](CCC(=O)O)C(=O)O)cc3)c2c(=O)[nH]1 [Pemetrexed] (partner 0.2 µM) yielded a relative viability (NCI-H1650; first compound 0.08 µM) of 0.437, a relative viability (NCI-H1650; first compound 0.8 µM) of 0.369 and a relative viability (NCI-H1650; first compound 2.53 µM) of 0.494. It also gave a relative viability (NCI-H1650; first compound 8 µM) of 0.358, a relative viability (LOU-NH91; first compound 0.08 µM) of 0.357 and a relative viability (LOU-NH91; first compound 0.8 µM) of 0.385. The relative viability (LOU-NH91; first compound 2.53 µM) was 0.381, the relative viability (LOU-NH91; first compound 8 µM) was 0.466 and the relative viability (NCI-H2009; first compound 0.08 µM) was 1.08. For the same compound, the relative viability (NCI-H2009; first compound 0.8 µM) was 1.09, the relative viability (NCI-H2009; first compound 2.53 µM) was 1.06 and the relative viability (NCI-H2009; first compound 8 µM) was 1.01. It also gave a relative viability (HCC-44; first compound 0.08 µM) of 0.634, a relative viability (HCC-44; first compound 0.8 µM) of 0.632 and a relative viability (HCC-44; first compound 2.53 µM) of 0.599. For the same compound, the relative viability (HCC-44; first compound 8 µM) was 0.699, the relative viability (NCI-H2228; first compound 0.08 µM) was 0.329 and the relative viability (NCI-H2228; first compound 0.8 µM) was 0.347. It also gave a relative viability (NCI-H2228; first compound 2.53 µM) of 0.345, a relative viability (NCI-H2228; first compound 8 µM) of 0.39 and a relative viability (NCI-H838; first compound 0.08 µM) of 0.271. The relative viability (NCI-H838; first compound 0.8 µM) was 0.238, the relative viability (NCI-H838; first compound 2.53 µM) was 0.252 and the relative viability (NCI-H838; first compound 8 µM) was 0.247. The relative viability (NCI-H520; first compound 0.08 µM) was 0.656, the relative viability (NCI-H520; first compound 0.8 µM) was 0.852 and the relative viability (NCI-H520; first compound 2.53 µM) was 0.708. The relative viability (NCI-H520; first compound 8 µM) was 0.821, the relative viability (NCI-H1755; first compound 0.08 µM) was 0.448 and the relative viability (NCI-H1755; first compound 0.8 µM) was 0.468. For the same compound, the relative viability (NCI-H1755; first compound 2.53 µM) was 0.433, the relative viability (NCI-H1755; first compound 8 µM) was 0.46 and the relative viability (HCC-78; first compound 0.08 µM) was 0.924. It also gave a relative viability (HCC-78; first compound 0.8 µM) of 0.895, a relative viability (HCC-78; first compound 2.53 µM) of 0.982 and a relative viability (HCC-78; first compound 8 µM) of 0.949. It also gave a relative viability (NCI-H358; first compound 0.08 µM) of 0.217, a relative viability (NCI-H358; first compound 0.8 µM) of 0.193 and a relative viability (NCI-H358; first compound 2.53 µM) of 0.178. It also gave a relative viability (NCI-H358; first compound 8 µM) of 0.175, a relative viability (LK-2; first compound 0.08 µM) of 0.335 and a relative viability (LK-2; first compound 0.8 µM) of 0.227. It also gave a relative viability (LK-2; first compound 2.53 µM) of 0.385, a relative viability (LK-2; first compound 8 µM) of 0.289 and a relative viability (NCI-H2347; first compound 0.08 µM) of 0.413. It also gave a relative viability (NCI-H2347; first compound 0.8 µM) of 0.482, a relative viability (NCI-H2347; first compound 2.53 µM) of 0.448 and a relative viability (NCI-H2347; first compound 8 µM) of 0.434. It also gave a relative viability (HCC-366; first compound 0.08 µM) of 0.161, a relative viability (HCC-366; first compound 0.8 µM) of 0.149 and a relative viability (HCC-366; first compound 2.53 µM) of 0.151. It also gave a relative viability (HCC-366; first compound 8 µM) of 0.236, a relative viability (NCI-H2405; first compound 0.08 µM) of 1.09 and a relative viability (NCI-H2405; first compound 0.8 µM) of 1.15. For the same compound, the relative viability (NCI-H2405; first compound 2.53 µM) was 1.18, the relative viability (NCI-H2405; first compound 8 µM) was 0.818 and the relative viability (NCI-H1355; first compound 0.08 µM) was 1.06. The relative viability (NCI-H1355; first compound 0.8 µM) was 1.13, the relative viability (NCI-H1355; first compound 2.53 µM) was 1.12 and the relative viability (NCI-H1355; first compound 8 µM) was 0.784. For the same compound, the relative viability (UMC-11; first compound 0.08 µM) was 0.812, the relative viability (UMC-11; first compound 0.8 µM) was 0.849 and the relative viability (UMC-11; first compound 2.53 µM) was 0.928. It also gave a relative viability (UMC-11; first compound 8 µM) of 0.806, a relative viability (NCI-H1734; first compound 0.08 µM) of 0.434 and a relative viability (NCI-H1734; first compound 0.8 µM) of 0.447. It also gave a relative viability (NCI-H1734; first compound 2.53 µM) of 0.414, a relative viability (NCI-H1734; first compound 8 µM) of 0.401 and a relative viability (NCI-H1666; first compound 0.08 µM) of 0.922. For the same compound, the relative viability (NCI-H1666; first compound 0.8 µM) was 0.894, the relative viability (NCI-H1666; first compound 2.53 µM) was 0.849 and the relative viability (NCI-H1666; first compound 8 µM) was 0.817. For the same compound, the relative viability (BEN; first compound 0.08 µM) was 0.763, the relative viability (BEN; first compound 0.8 µM) was 0.823 and the relative viability (BEN; first compound 2.53 µM) was 1.03. The relative viability (BEN; first compound 8 µM) was 0.731, the relative viability (SW 1573; first compound 0.08 µM) was 0.92 and the relative viability (SW 1573; first compound 0.8 µM) was 0.844. For the same compound, the relative viability (SW 1573; first compound 2.53 µM) was 0.99, the relative viability (SW 1573; first compound 8 µM) was 0.931 and the relative viability (201T; first compound 0.08 µM) was 0.347. It also gave a relative viability (201T; first compound 0.8 µM) of 0.326, a relative viability (201T; first compound 2.53 µM) of 0.333 and a relative viability (201T; first compound 8 µM) of 0.299.
